# Laboratory results taken from article PMC8696028, “Tricarboxylate Citrate Transporter of an Oleaginous Fungus Mucor circinelloides WJ11: From Function to Structure and Role in Lipid Production” (Frontiers in Nutrition, 2021).
# Molecular target: T1, Tct (tricarboxylate citrate transporter; tricarboxylate carrier) (Mucor circinelloides, UniProt S2K4S3)
# T1 construct: gene HMPREF1544_06035; full-length tct (321 residues), E. coli codon-optimised, pET30a(+) NdeI/HindIII with C-terminal His tag, E. coli BL21(DE3); urea-denatured, Ni-purified, renatured, reconstituted in liposomes
# Test: […]citrate/citrate exchange in Tct-reconstituted proteoliposomes, inhibitor-stop method
# Assay type: biochemical
# Settings: 10 mM internal citrate, 0.01 mM external [14C]citrate, 2 min
# T1 sequence (S2K4S3 entry or part of it): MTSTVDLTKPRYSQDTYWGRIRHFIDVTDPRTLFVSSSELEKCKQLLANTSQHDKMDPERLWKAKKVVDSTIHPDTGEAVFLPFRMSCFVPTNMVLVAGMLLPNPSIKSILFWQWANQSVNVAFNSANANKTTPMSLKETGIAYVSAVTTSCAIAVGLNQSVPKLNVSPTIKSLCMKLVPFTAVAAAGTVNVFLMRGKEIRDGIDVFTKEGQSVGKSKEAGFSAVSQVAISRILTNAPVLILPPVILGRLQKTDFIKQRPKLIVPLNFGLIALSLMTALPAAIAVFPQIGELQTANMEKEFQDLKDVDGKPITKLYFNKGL
structure (smiles),measurement,value
Cc1ncc(COP(=O)(O)O)c(C=O)c1O [pyridoxal 5'-phosphate],inhibition at 20 mM,Pyridoxal-5'-phosphate (PLP) and pHMB strongly inhibit Tct transport activity
